Results taken from patent US20180353460A1, “METHODS OF TREATING UROLOGICAL DISORDERS USING SARMs” (priority 2014, published 2018).
Values joined by “and” are separate entries in the source; they are usually repeats but may differ in a detail not shown here. Identical values can stand only once.

Experiments:
[1] = Serum drug concentration by LC-MS/MS in ovariectomized mice; type: in vivo; conditions: female, mouse, oral, 28 days
Method: Six to eight week old female mice (n=5-7) purchased from JAX® Mice were ovariectomized (OVX) or sham operated. Twenty days after OVX, treatment was initiated as outlined in the table below. Compounds of Formulas IX and VIII were dissolved in DSMO/PEG 300 (15:85) and were administered by oral gavage. Body weight and MRI measurements, to evaluate total body lean mass, were recorded at the beginning and at the end of the treatment. The animals were treated for twenty-eight days and then sacrificed, pelvic floor muscles isolated, weighed and stored for RNA and protein extraction. The expression of genes involved in catabolism and anabolism of muscle was measured by mRNA analysis. The serum concentrations of the drugs were measured by LC-MS/MS. The statistical analysis was performed using JMP Pro® software utilizing one way analysis of variance.
After samples were thawed, a 100 μL aliquot of mouse serum from each sample was mixed with 200 μL acetonitrile containing 200 nM compound of Formula XIII as the internal standard. After each sample was thoroughly vortex for 15 seconds, the sample was centrifuged at 3000 rpm for 10 min. Approximately 200 μL supernatant was transferred for LC-MS/MS analysis
Stock solutions of compounds of Formulas IX and VIII were 100 μM in DMSO. A dilution of 1:50 with control mouse serum was made and 200 μL of 2 μM was added to the first micro centrifuge tube. […] Transferred 100 μL from tube 1 (2 μM) to tube 2, vortexed and continued the 2 fold dilution through tube 7. 200 μL of acetonitrile containing 200 nM compound of Formula XIII as the internal standard was added to each tube. After vortexing and centrifuging, 200 μL was transferred to LC-MS/MS analysis. The concentration of each standard curve ranged from 1 μM to 0.0078 μM.
The analysis of compounds of Formulas IX and VIII in serum was performed using LC-MS/MS system consisting of Agilent 1100 HPLC with an MDS/Sciex 4000 Q-Trap™ mass spectrometer. The separation was achieved using a C18 analytical column (Alltima™, 2.1×100 mm, 3 μm) protected by a C18 guard column (Phenomenex™ 4.6 mm ID cartridge with holder). Mobile phase was consisting of channel A (95% acetonitrile+5% water+0.1% formic acid) and channel C (95% water+5% acetonitrile+0.1% formic acid) and was delivered isocratically at a flow rate of 0.4 mL/min. The total runtime for compound of Formula IX was 4.5 min, and the volume injected was 10 μL. The total runtime for compound of Formula VIII was also 4.5 min, and the volume injected was 10.0 μL. Multiple reaction monitoring (MRM) scans were made with curtain gas at 30 for compound of Formula IX, 25 for compound of Formula VIII; collision gas at medium for compound of Formula IX, high for compound of Formula VIII; nebulizer gas and auxiliary gases at 60 and source temperature at 550° C. for both. Molecular ions were formed using an ion spray voltage (IS) of 4200 V (negative mode). Declustering potential (DP), entrance potential (EP), collision energy (CE), product ion mass, and cell exit potential (CXP) were optimized with the values of −20.0, −10.0, −30.0, and −15.0, respectively, for the mass pair 388.1/118.1 (compound of Formula IX). Declustering potential (DP), entrance potential (EP), collision energy (CE), product ion mass, and cell exit potential (CXP) were optimized with the values of −95.9, −9.94, −40.0, and −15.0, respectively, for the mass pair 354.0/118.1 (compound of Formula VIII).
Animals were sacrificed 24 h after the last dose to measure the steady state concentration.

[2] = tested on: postmenopausal women with SUI; experiment: Proof of concept clinical study: stress leaks per day by 3 day voiding diary; type: in vivo, human
Method: This was initially a single site, proof of concept feasibility study to describe the effect of the S-isomer of the compound of Formula IX (Compound IX) 3 mg in postmenopausal female subjects with SUI. However, data presented herein were from subjects seen at 3 separate sites.
Described is the effect of 12 weeks of treatment of Compound IX on the number of stress urinary incontinence episodes/day as assessed by the 3 day voiding diary. See leaks/day data in Tables 2 (individual subject data from all 3 sites), Tables 4-6 (mean stress leaks for sites 1, 2, and 3, respectively), and FIG. 10 (mean stress leaks/day across all sites). Further, see Table 3 for the durability of this response in subjects assessed at 16, 24, 32 and 40 weeks (and their pad weights).
Subjects were instructed to take one 3 mg softgel capsule per day by mouth, without regard to food intake.
This is a proof of concept feasibility study, so no power calculation was needed. Therefore, up to 35 subjects meeting inclusion/exclusion criteria would be recruited until the enrolled subjects have completed treatment. Further, durability was assessed at 40 weeks. Descriptive statistics were performed to explore changes in primary and secondary outcomes measures between baseline and weeks 12 (end of treatment) or 40 (durability). The primary efficacy measure was a reduction in the number of stress incontinence episodes/day. […] Safety will be determined by the number and type of adverse events reported during treatment, but is reported here from historical data from other clinical trials. Various imputation methods may be explored.
Change in frequency of daily stress urinary incontinence episodes from Baseline to Week 12 and durability at 40 weeks (28 weeks after Compound IX treatment is discontinued).
The data were collected from first 18 patients at 12 weeks and are derived from number of stress leaks reported by subjects in a 3 day voiding diary. […] Table 3 provides durability data of Compound IX for 18 patients and depicts that, for the first 9 subjects, this response was durable out to 40 weeks, i.e., 28 weeks (7 months) after treatment with Compound IX was discontinued. Data collection and analysis is ongoing.

[3] = tested on: postmenopausal women with SUI; experiment: Proof of concept clinical study: safety; type: in vivo, human; conditions: 3 mg/day p.o., 12 weeks
Method: Described is the safety profile of Compound IX 3 mg PO daily in subjects with SUI. See Table 8 which is historical data from other clinical trials establishing the safety profile of Compound IX in human subjects. See also the lack of increase in endometrial thickness in Example 19.
For the PGI-S measure, 12 patients reported symptoms as “moderate” or “severe” at baseline; whereas only 3 patients reported “moderate” symptoms and no patients reported “severe” at 12 weeks (FIG. 12A).

Row | Structure (SMILES) | concentration at 24 h after the last dose ([1]; 0.5 mpk p.o.) [µM] | concentration at 24 h after the last dose ([1]; 2.5 mpk p.o.) [µM] | concentration at 24 h after the last dose ([1]; 5 mpk p.o.) [µM] | mean stress leaks/day at 40 weeks ([2]; N=9, 7 months after discontinuation) [leaks/day] | Stress Leaks % Reduction ([2]; Site 1 (n = 10), week 12) [%] | Stress Leaks % Reduction ([2]; Site 2 (n = 5), week 12) [%] | Stress Leaks % Reduction ([2]; Site 3 (n = 2), week 12) [%] | reduction of mean stress leaks/day from baseline to week 12 ([2]; all sites, 18 patients) [%] | mean stress leaks/day at week 12 ([2]; all sites, 18 patients, baseline 5.17) | Leaks/Day (Week 12), stress leaks ([2]; individual patients, 3 mg/day p.o., week 12) | Durability of response: % Reduction in leaks/day Week 16 ([2]; individual patients, 4 weeks post-treatment) | Durability of response: % Reduction in leaks/day Week 24 ([2]; individual patients, 12 weeks post-treatment) | Durability of response: % Reduction in leaks/day Week 32 ([2]; individual patients, 20 weeks post-treatment) | Durability of response: % Reduction in leaks/day Week 40 ([2]; individual patients, 28 weeks post-treatment) | patients who were responders (50% or greater reduction in stress leaks/day) ([2]; week 12, 18 patients) | SHBG [3] | endometrial stripe thickness [3] | liver enzymes [3] | serious adverse events [3] | total cholesterol, LDL, HDL and triglycerides [3]
1 | C[C@](O)(COc1ccc(C#N)cc1)C(=O)Nc1ccc(C#N)c(C(F)(F)F)c1 [Compound IX, (S)—N-(4-Cyano-3-(trifluoromethyl)phenyl)-3-(4-cyanophenoxy)-2-hydroxy-2-methylpropanamide] | 0.862 | 3.85 | 6.07 | 0.63 | 86 | 75 | 78 | 81 | 1.0 leaks/day and 1.00 leaks/day | 2.33 leaks/day and 0 leaks/day (3×) and 1 leaks/day (2×) and 1.33 leaks/day (2×) and 0.33 leaks/day (3×) and 1.66 leaks/day and 1.30 leaks/day and .67 leaks/day and 2.3 leaks/day and .33 leaks/day and 3 leaks/day and 0.67 leaks/day | 77% and 100% (5×) and 60% and 50% and 92% and 89% and 79% and 78% and 64% and 65% | 69% and 100% (6×) and 70% and 42% and 95% and 10% and 57% and 78% and 50% and 60% | 54% and 95% and 100% (3×) and 17% and 50% and 36% and 55% and 93% | 69% and 100% (5×) and 80% and 42% and 72% | all patients were responders and All 18 patients were responders and All 18 subjects and all 18 subjects and 18 of 18 | Reductions in SHBG | No changes in endometrial stripe thickness | Mild transient elevations in liver enzymes | no serious adverse events reported | reductions in total cholesterol, LDL, HDL and triglycerides
2 | C[C@](O)(COc1ccc(C#N)cc1)C(=O)Nc1ccc(C#N)c(Cl)c1 [VIII, (S)—N-(3-Chloro-4-cyanophenyl)-3-(4-cyanophenoxy)-2-hydroxy-2-methylpropanamide] | 0.429 | 2.44 | 4.1 | – | – | – | – | – | – | – | – | – | – | – | – | – | – | – | – | –
